Patent publication US9682158B2, “Therapy of malignant neoplasias” (priority 2005, dated 2017)
“Also recorded” adds a separate entry of the source. Values belong to the compound of their own block, whether it stands above or below them.

What was measured:
glioma [1] = conditions: cited from earlier work
glioma [2] = assay: Clinical studies with IPA-123 (SPECT imaging); format: in vivo, human; conditions: 250 MBq
Description: IPA was prepared, as described in example 2. […] Patients were injected with 250 MBq IPA-123, and subsequently imaged at 30 min, 3 h and, where possible, 24 h post injection, using a triple head SPECT camera (Siemens Multi-SPECT III, Erlangen, Germany) with low energy high resolution (LEHR) collimator and iterative reconstruction for cerebral (FIG. 14) imaging. Whole body imaging (FIG. 15) was performed using a Hawkeye dual head SPECT camera (General Electrics Medical Systems, Uppsala, Sweden) with high energy collimator, and iterative reconstruction at 0 min, 1 h and 3 h after injection of 250 MBq IPA-123. SPECT images were acquired using 3-degree angular steps. During a 360° rotation 120 projections were recorded into a 128*128 matrix, with an acquisition time of 40 s per image. Images were reconstructed using manufacturer's software. Anatomical co-alignment with MRI data was performed using HERMES software for nuclear medicine (Nuclear Diagnostics, Stockholm, Sweden). Tumor uptake was visually assessed by two adequately trained, independent nuclear medicine physicians. In discordant cases, a consensus rating was agreed upon. 86% of patients with histologically confirmed tumor show IPA-123 uptake.

[3] = system: human tumor cells, especially malignant gliomas; assay: Flow-cytometric analyses of stained cells after treatment (primary necrosis and apoptosis); format: cell-based; conditions: flow cytometry; compared with external irradiation up to 15 Gy
Description: (§1) After development of a confluent lawn of cells, the cultures were exposed to 0.001-10 μCi/ml of the corresponding radiopharmaceutical for up to 48 hours at 37° C./5% CO2. In a parallel experiment, cells were irradiated using a 6-MeV linear accelerator with doses from 2 to 15 Gy for comparison of cell survival rate of both methods. In order to be able to observe the morphology of the glioma cells, the cells were grown on standard glass slides or in standard culture dishes. Then the medium was removed and the cells were fixed either in 70% ethanol for at least 30 min on ice for flow-cytometric analyses after staining or in 4% neutral buffered formalin for immunohistopathological analyse.

[4] = system: glioma, pancreas, prostate and breast cancer cells; assay: Cell survival after treatment with radiolabeled L-phenylalanines, further tumor cells; format: cell-based; conditions: in vitro
Description: as §1
(§2) Human tumor cells grown on standard glass slides were fixed in 4% neutral buffered formalin and stained with the Giemsa method. The cell number was calculated in 10 consecutive high power fields (×40).

[5] = system: T5135 primary human glioma cell line; assay: Cell survival rate after treatment with radiolabeled L-phenylalanines; format: cell-based; conditions: 24 hours exposure, 1 μCi/ml, compared to parallel grown cell cultures without exposure
Description: (§3) Five human glioma cell lines, one rat glioma cell line, two human prostate cancer cell lines and one human breast cancer cell line were investigated. The human glioma cell lines Tx 3868 and T 5135 (from primary human glioblastoma multiforme), and the rat C6 glioma cells were provided by the Institute of Human Genetics, University of the Saarland (Homburg, Germany). The human high-grade glioma cells, designated as A1207, M059K and U373MG, the human prostate cancer cell lines PC3 and […], and the human breast cancer cell line MCF-07 (American Type Culture Collection, Rockville, Md.), were purchased commercially or provided by the oncological research laboratory of the University Medical Center of Saarland (Homburg, Germany). Cells were cultivated in RPMI-1640 medium or in Dulbecco's modified Eagle medium (sodium pyruvate-free, supplemented with […] and pyridoxine), respectively, supplemented with 10% (v/v) heat-inactivated foetal calf serum (FCS), penicillin (50 U/ml), streptomycin (50 μg/ml), and 50 μl insulin (PromoCell, Heidelberg, Germany). All cells lines were maintained in appropriate flasks in a humidified incubator (5% CO2) at 37° C. Before the experiment, subconfluent cell cultures were trypsinized with a solution of 0.05% trypsin containing 0.02% EDTA but without Ca^2+ and Mg^2+, and resuspended in fresh medium to various cell concentrations after counting by vital staining on a hemocytometer, depending upon the study. Cells were free of mycoplasms. Viability of the cells was >95%.
(§4) After development of a confluent lawn of cells, the cultures were exposed to 0.001-10 μCi/ml of the corresponding radiopharmaceutical for up to 48 hours at 37° C./5% CO2. In a parallel experiment, cells were irradiated using a 6-MeV linear accelerator with doses from 2 to 15 Gy for comparison of cell survival rate of both methods. […]
as §2

[6] = system: Tx 3868 primary human glioma cell line; assay: as above; format: cell-based
Description: as §3, §4, §2

C6 rat gliomas = assay: IPA-131 endoradiotherapy of orthotopic C6 rat gliomas; format: in vivo
Description: […] Wistar rats and RNU rats were from Charles River (Sulzfeld, Germany). The C6 rat glioma model has been previously described in detail. Its biological behavior closely simulates that of human high-grade gliomas.
(§5) One million (10^6) C6 rat glioma cells or 10^6 primary human Tx3868, […], A1207, M059K and U373MG high-grade glioma cells were stereotactically implanted into the left frontal region of Wistar rats or RNU rats while under chloral hydrate anaesthesia as described previously. The animals were held in metabolic cages. […] For each cell line, 6 animals with radiologically (MRI or by gamma camera) confirmed brain tumor were randomly chosen as control animals, a second group of 15 animals were treated with 20 MBq of the radiolabeled L-phenylalanine in two fractions of 10 MBq each via a Teflon catheter in a tail vein 9 and 18 days after tumour implantation. While a third group of 15 rats were irradiated with 4-8 Gy. Survival time was calculated according to the Kaplan-Meier method. Surviving animals were sacrificed after 90 and 180 days. All rat brains were examined histologically after biopsy.
Magnetic resonance imaging was performed 9 days after tumour implantation (before drug administration) and after the second injection of radiolabeled phenylalanine at day 18 as well as possibly at the day of scarification, using a 2.4-Tesla small animal magnetic resonance tomograph (Brucker Biospec 2.4, Karlruhe, Germany). This system was equipped with a rat coil to hold the animal and transmit homogeneous signals. All rats were imaged while under chloral hydrate anaesthesia (250 mg/kg, i.m.). Multiple axial and coronal images (T1- and T2-weighted) were acquired for 20 min without contrast media. The parameters used were: T1-weighted (TR=100 msec, TE=6.5 msec, flip angle 30°, FOV=2×2 cm, 256×128×64 matrix) and T2-weighted (TR=500 msec, TE=17.5 msec, 1 acquisition, RARE factor 16, FOV=2×2 cm, 256×256×32 matrix, slap-thickness 16 mm).
(§6) At autopsy of the rats and mice, besides the brains, other organs were harvested including the heart, lung, liver, spleen, kidney, skin, and colon. […]

[7] = system: orthotopically implanted rat and human gliomas; assay: IPA-131 endoradiotherapy in rats with orthotopically implanted rat and human gliomas, Kaplan-Meier survival; format: in vivo
Description: (§7) The first studies were carried out on in male Wistar rats for C6 rat glioma model and in RNU rats for human glioma models. Wistar rats and RNU rats were from Charles River (Sulzfeld, Germany). The C6 rat glioma model has been previously described in detail. Its biological behavior closely simulates that of human high-grade gliomas.
as §5

[8] = system: human A1207 glioblastomas; assay: IPA-131 endoradiotherapy of orthotopic human A1207 glioblastomas; format: in vivo; conditions: dose 20 MBq, RNU rats
Description: as §7, §5, §6

[9] = system: human Tx3868 glioblastomas; assay: IPA-131 endoradiotherapy of orthotopic human Tx3868 glioblastomas; format: in vivo; conditions: dose 20 MBq, RNU rats
Description: as §7, §5, §6

[10] = Clinical and histological safety observation of treated glioma rats; format: in vivo, rat
Description: as §5
At autopsy of the rats and mice, besides the brains, other organs were harvested including the heart, lung, liver, spleen, kidney, skin, and colon. The brains were cut in coronal slices of about 2-3 mm thickness. All tissues from the animals were fixed in 4% neutral buffered formalin and embedded in paraffin wax. Sections were stained with hematoxylin-eosin and Verhoeff-van Gieson and examined histopathologically.

glioma [11] = assay: Clinical study with IPA-131 (SPECT imaging); format: in vivo, human; conditions: 100 MBq
Description: IPA was prepared, as described in example 3. […] The patient was injected with 100 MBq IPA-131 and subsequently imaged at 30 min and at 26 h post injection using a Hawkeye dual head SPECT camera (General Electrics Medical Systems, Uppsala, Sweden) with high energy collimator, and iterative reconstruction for cerebral (FIGS. 13a and b) and whole body (FIGS. 13c and d) imaging. SPECT images were acquired using 3-degree angular steps. During a 360° rotation 120 projections were recorded into a 128*128 matrix, with an acquisition time of 40 s per image. Images were reconstructed using manufacturer's software. Tumor uptake was visually assessed by two adequately trained, independent nuclear medicine physicians.

glioma [12] = assay: Clinical study with IPA-124 (PET imaging); format: in vivo, human
Description: IPA was prepared, as described in example 3. […] The patient was injected with 50 MBq IPA-124, and subsequently dynamically imaged at 40-80 min and at 6 days post injection using a dedicated PET camera (Siemens ECAT-ART Scanner, Siemens-CTI, Knoxville, Tenn., USA). SPECT images were acquired using 3-degree angular steps. During a 360° rotation 120 projections were recorded into a 128*128 matrix, with an acquisition time of 40 s per image. Images were reconstructed using manufacturer's software. Anatomical co-alignment with MRI data was performed using HERMES software for nuclear medicine (Nuclear Diagnostics, Stockholm, Sweden) (FIGS. 12a and b). Tumor uptake was visually assessed by two adequately trained, independent nuclear medicine physicians. The patient was operated on day 2 post injection. Post-operative images continue to show strong IPA uptake in projection to the resection margins corresponding to a large portion of tumor tissue which remained in situ. […] Post-operative images were semiquantitatively analysed. A region of interest (ROI) was drawn over the area of increased IPA-124 uptake and compared to a mirrored reference ROI in the contralateral healthy hemisphere using the median sagittal plane as mirror plane (FIG. 12c). Activity concentration in the remaining tumor tissue exceeded activity in the reference region by a factor of 8.86 after 6 days.

[13] = physical half life of the radionuclide; cited from earlier work

- retention of the tracer in tumor (glioma [2]; patient with glioblastoma): at least 24 h
Compound: N[C@@H](Cc1ccc([123I])cc1)C(=O)O [IPA-123, 4-[^123I]iodo-L-phenylalanine]
- accumulation in gliomas (glioma [1]; after intravenous administration, ref [14]): accumulates specifically in low and high grade gliomas with surprisingly marked retention in tumor cells
- blood-brain barrier passage (glioma [1]; after intravenous administration, refs [13, 14]): crosses the blood-brain barrier
- accumulation in the normal cerebral parenchyma (glioma [1]; refs [13, 14]): moderate and decreases rapidly with time
- patients with histologically confirmed tumor showing uptake (glioma [2]; visual assessment): 86%

Compound: 3,4-[^211I]astatine-L-phenylalanine [AtPA-211]
- induction of primary necrosis and apoptosis [3]: dose dependent induction of primary necrosis and apoptosis, which was more significant than that caused by external irradiation, even with 15 Gy
- cell count / cell survival compared with IPA-131 results [4]: Identical results

Compound: 3,4-[^77Br]bromo-L-Phenylalanine [BrPA-77]
- induction of primary necrosis and apoptosis [3]: dose dependent induction of primary necrosis and apoptosis, which was more significant than that caused by external irradiation, even with 15 Gy
- cell count / cell survival compared with IPA-131 results [4]: Identical results

Compound: N[C@@H](Cc1ccc([131I])cc1)C(=O)O [IPA-131, 4-[^131I]iodo-L-phenylalanine]
- induction of primary necrosis and apoptosis [3]: dose dependent induction of primary necrosis and apoptosis, which was more significant than that caused by external irradiation, even with 15 Gy
- cell survival rate [5]: < 20%
- cell survival rate ([6]; 24 hours exposure, 1 μCi/ml, compared to parallel grown cell cultures without exposure): less than 22%
- mode of cell death (cytological) ([6]; primary human glioma cell lines after 24 hours exposure): apoptosis
- Kaplan-Meier survival of treated animals group (C6 rat gliomas; C6-glioma rats, 81 days after implantation, p=<0.05): significant longer survival
- tumor disappearance, intravital small animal MRI imaging (C6 rat gliomas; dose 20 MBq, RNU rats): subgaleal and intracerebral tumor disappearance
- tumour on MRI (C6 rat gliomas; surviving C6-glioma rats, 81 days after implantation): no tumour was demonstrable with MRI
- survival vs maximum tolerable external irradiation ([7]; Kaplan-Meier analysis, 20 MBq vs external irradiation): significantly longer survival than those treated by maximum tolerable doses of external irradiation
- survival time of treated rats vs control group ([7]; all glioma models, 20 MBq i.v. in two fractions): significantly increased
- metabolic and H & E staining of fresh-frozen tissue sections [8]: metabolic normalisation, and histological tumor disappearance
- metabolic and H & E staining of fresh-frozen tissue sections [9]: metabolic normalisation, and histological tumor disappearance
- seizures ([10]; treated animals): No seizures were observed
- liver and kidney histomorphology ([10]; treated animals, autopsy): did not show any histomorphological abnormality
- adverse therapy-related events and toxic effects ([10]; treated glioma rats, clinical observation): no adverse therapy-related events and no toxic effects were observed clinically
- tumor uptake / targeting in glioma patient (glioma [11]; SPECT 30 min and 26 h post injection): not only taken up but also retained by glioma tissue; also recorded: Successful tumor targeting
- tolerability (glioma [11]; patient): well tolerated
- retention in tumor (glioma [11]; patient, SPECT): at least 26 hours

- retention of tracer in glioma (glioma [12]; patient, 50 MBq, PET): at least 6 days
- tumor activity relative to reference region (contralateral healthy tissue), factor (glioma [12]; post-operatively remaining tumor tissue, 6 days post injection of 50 MBq): 8.86
Compound: N[C@@H](Cc1ccc([124I])cc1)C(=O)O [IPA-124, 4-[^124I]iodo-L-phenylalanine]
- tumor uptake / targeting in glioma patient (glioma [12]; 50 MBq, PET 40-80 min and 6 days post injection): retained in high activity concentrations by tumor tissue for prolonged periods; also recorded: Successful tumor targeting
- tolerability (glioma [12]; patient, 50 MBq): well tolerated
- half life [13]: 4.2 days
